Among the test systems are DLD-1 colon; DMS 273 small cell lung; LXFL 529 NSCLC; SNB-78 CNS.
What all share (test): inhibition of tumour cell growth, NCI panel, 48 h

“And” between values parts separate entries of the source, which are not always exact repeats. Identical values can stand only once.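 Five concentrations, 48 hours, 96-well plates. TGI: concentration producing complete growth inhibition.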

For `C/C=C(/CCC1NCCc2c1[nH]c1ccccc21)[Si](C)(C)C` (centres undefined), the TGI in the test on DLD-1 colon was > 100 µM and 21.6 µM; in the test on DMS 273 small cell lung, > 100 µM and 13.5 µM; with LXFL 529 NSCLC, 3.25 µM; in the test with SNB-78 CNS, > 100 µM and 27 µM.

Values taken from PubChem BioAssay (NCI).
